According to patent US10376488B2, “Use of flavonoids in manufacturing compositions for wound healing” (ONENESS BIOTECH CO., Ltd, priority 2014, dated 2019):
Marks after values point to notes of the source that are not given here.

System: diabetic wound
Test: Diabetic wound healing test in STZ-induced hyperglycemic rats
Assay type: in vivo
Set-up: CT50: wound half-closure time: unit not given beside the values
Conditions: 0.5% ointment applied to wounds, mean±SEM, n = 6
Method: After rats' body weight reach 300 g, the induction of hyperglycemia was carried out with streptozotocin (STZ) (65 mg/kg, ip administration). […] Hyperglycemic animals with a body weight less than 300 g were excluded, and random grouping was performed. Animals were anesthetized with pentobarbital and then their backs were shaved and disinfected. Three pieces of animal skin (full thickness) were harvested from the back of the animals at points 4, 6 and 8 cm from the midpoint of the two scapula with an 1- cm-diameter drilling round knife.
Wounds of each animal were applied with testing agents. New skins were harvested for examination after the end of experiment.
Analyzing the areas of the three wounds on the back of each rat by image pro with the area on day zero as the original wound area. The original wound area is subtracted by the wound area at each time point and then divided by the original wound area to serve as the percentage of wound healing. The average value of the three percentages of wound healing of each rat is considered as the respective would healing extent of each rat. The number of rats was 6 for each group of each test. Data is expressed as mean±SEM. P value is calculated for the test results by t-test against control group, where P<0.05 indicates significant differences, denoted *.
A 0.5% cirsimaritin composition was prepared in an ointment form, and was applied to the rats as treated above. The comparison between the percentages of wound healing at 9, 11, 13, and 15 days after administration, and the untreated control group is shown below. There were significant differences for each group.

Structure (SMILES): COc1cc2oc(-c3ccc(O)cc3)cc(=O)c2c(O)c1OC [cirsimaritin]
- CT50: wound half-closure time: 10.7 ± 0.4*
- percentage of wound healing (9 days after administration): 37.2 ± 3.9* %
- percentage of wound healing (11 days after administration): 51.5 ± 3.1* %
- percentage of wound healing (13 days after administration): 70.6 ± 3.5* %
- percentage of wound healing (15 days after administration): 83.3 ± 3.2* %
